Key:
[1] = biological target: T1, p110α Type Ia human PI3K (Homo sapiens, UniProt P42336); experiment: In vitro PI3K enzyme assay (AlphaScreen), Test (a); format: biochemical; settings: recombinant enzyme, PI(4,5)P2 substrate, ATP 4 μM, read-out: IC50 versus p110α Type Ia human PI3K
T1 construct: full length DNA of each of the p110α, p110β and p110δ Type Ia human PI3K p110 isoforms; 6-His; made in house
Excerpt: (a) In Vitro PI3K Enzyme Assay
The assay used AlphaScreen technology (Gray et al., Analytical Biochemistry, 2003, 313: 234-245) to determine the ability of test compounds to inhibit phosphorylation by recombinant Type I PI3K enzymes of the lipid PI(4,5)P2.
DNA fragments encoding human PI3K catalytic and regulatory subunits were isolated from cDNA libraries using standard molecular biology and PCR cloning techniques. The selected DNA fragments were used to generate baculovirus expression vectors. In particular, full length DNA of each of the p110α, p110β and p110δ Type Ia human PI3K p110 isoforms (EMBL Accession Nos. HSU79143, S67334, Y10055 for p110α, p110β and p110δ respectively) were sub-cloned into a pDEST10 vector (Invitrogen Limited, Fountain Drive, Paisley, UK). The vector is a Gateway-adapted version of Fastbac1 containing a 6-His epitope tag. […]
Biotinylated-DiC8-PI(3,4,5)P3 ([…]; Cell Signals Inc., Catalogue No. 107), recombinant purified GST-Grp1 PH protein (2.5 nM) and AlphaScreen Anti-GST donor and acceptor beads (100 ng; Packard Bioscience Limited, Station Road, Pangbourne, Berkshire, UK, Catalogue No. 6760603M) were added and the assay plates were left for about 5 to 20 hours at room temperature in the dark. The resultant signals arising from laser light excitation at 680 nm were read using a Packard AlphaQuest instrument. […]

[2] = biological target: mTOR PI kinase-related kinase (Homo sapiens, UniProt P42345); experiment: In vitro mTOR PI kinase-related kinase assay (AlphaScreen), Test (b); format: biochemical; settings: recombinant mTOR (1362-2549), ATP 20 μM, read-out: IC50 versus mTOR PI kinase-related kinase
mTOR PI kinase-related kinase, sequence (P42345 1362-2549): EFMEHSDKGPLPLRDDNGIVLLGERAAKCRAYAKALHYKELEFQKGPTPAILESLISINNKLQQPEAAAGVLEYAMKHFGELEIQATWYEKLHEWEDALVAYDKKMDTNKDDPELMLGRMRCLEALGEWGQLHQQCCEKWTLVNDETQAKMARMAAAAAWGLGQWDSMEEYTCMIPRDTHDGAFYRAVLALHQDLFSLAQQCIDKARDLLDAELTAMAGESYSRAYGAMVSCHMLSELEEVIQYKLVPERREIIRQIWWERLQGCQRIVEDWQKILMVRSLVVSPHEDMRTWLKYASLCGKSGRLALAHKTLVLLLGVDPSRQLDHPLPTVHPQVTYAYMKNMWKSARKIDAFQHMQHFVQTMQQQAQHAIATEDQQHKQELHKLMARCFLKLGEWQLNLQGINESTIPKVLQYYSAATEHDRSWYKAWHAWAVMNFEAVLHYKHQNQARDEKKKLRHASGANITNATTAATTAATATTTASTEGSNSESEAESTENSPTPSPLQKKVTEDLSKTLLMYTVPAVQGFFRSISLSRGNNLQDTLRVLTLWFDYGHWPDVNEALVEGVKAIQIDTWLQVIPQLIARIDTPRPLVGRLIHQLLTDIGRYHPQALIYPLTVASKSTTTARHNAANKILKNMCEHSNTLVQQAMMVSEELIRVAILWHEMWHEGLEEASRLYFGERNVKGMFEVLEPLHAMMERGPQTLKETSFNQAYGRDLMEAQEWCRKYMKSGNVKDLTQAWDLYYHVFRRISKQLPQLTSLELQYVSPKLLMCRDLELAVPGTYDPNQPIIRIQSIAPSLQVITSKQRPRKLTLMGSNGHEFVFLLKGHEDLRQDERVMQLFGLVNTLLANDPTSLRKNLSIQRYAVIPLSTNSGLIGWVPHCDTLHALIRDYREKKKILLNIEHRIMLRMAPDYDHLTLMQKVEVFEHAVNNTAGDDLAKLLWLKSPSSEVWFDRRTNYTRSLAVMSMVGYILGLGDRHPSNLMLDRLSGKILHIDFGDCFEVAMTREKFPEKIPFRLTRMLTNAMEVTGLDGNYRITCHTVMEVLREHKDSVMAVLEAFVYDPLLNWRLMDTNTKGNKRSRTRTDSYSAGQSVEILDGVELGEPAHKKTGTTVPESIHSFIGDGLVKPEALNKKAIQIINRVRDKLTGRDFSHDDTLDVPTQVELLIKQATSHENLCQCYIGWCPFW
Description: (b) In Vitro mTOR PI Kinase-Related Kinase Assay
The assay used AlphaScreen technology (Gray et al., Analytical Biochemistry, 2003, 313: 234-245) to determine the ability of test compounds to inhibit phosphorylation by recombinant mTOR. […]
Each reaction was stopped by the addition of 10 μl of a mixture of EDTA (50 mM), bovine serum albumin (BSA; 0.5 mg/ml) and Tris-HCl pH7.4 buffer (50 mM) containing p70 S6 Kinase (T389) 1A5 Monoclonal Antibody (Cell Signalling Technology, Catalogue No. 9206B) and AlphaScreen Streptavidin donor and Protein A acceptor beads (200 ng; Perkin Elmer, Catalogue No. 6760002B and 6760137R respectively) were added and the assay plates were left for about 20 hours at room temperature in the dark. The resultant signals arising from laser light excitation at 680 nm were read using a Packard Envision instrument.
Phosphorylated biotinylated peptide is formed in situ as a result of mTOR mediated phosphorylation. […] Upon laser light excitation at 680 nm, the donor bead: acceptor bead complex produces a signal that can be measured. […]
mTOR enzyme inhibition for a given test compound was expressed as an IC50 value.

T1 sequence (P42336 whole entry, canonical isoform): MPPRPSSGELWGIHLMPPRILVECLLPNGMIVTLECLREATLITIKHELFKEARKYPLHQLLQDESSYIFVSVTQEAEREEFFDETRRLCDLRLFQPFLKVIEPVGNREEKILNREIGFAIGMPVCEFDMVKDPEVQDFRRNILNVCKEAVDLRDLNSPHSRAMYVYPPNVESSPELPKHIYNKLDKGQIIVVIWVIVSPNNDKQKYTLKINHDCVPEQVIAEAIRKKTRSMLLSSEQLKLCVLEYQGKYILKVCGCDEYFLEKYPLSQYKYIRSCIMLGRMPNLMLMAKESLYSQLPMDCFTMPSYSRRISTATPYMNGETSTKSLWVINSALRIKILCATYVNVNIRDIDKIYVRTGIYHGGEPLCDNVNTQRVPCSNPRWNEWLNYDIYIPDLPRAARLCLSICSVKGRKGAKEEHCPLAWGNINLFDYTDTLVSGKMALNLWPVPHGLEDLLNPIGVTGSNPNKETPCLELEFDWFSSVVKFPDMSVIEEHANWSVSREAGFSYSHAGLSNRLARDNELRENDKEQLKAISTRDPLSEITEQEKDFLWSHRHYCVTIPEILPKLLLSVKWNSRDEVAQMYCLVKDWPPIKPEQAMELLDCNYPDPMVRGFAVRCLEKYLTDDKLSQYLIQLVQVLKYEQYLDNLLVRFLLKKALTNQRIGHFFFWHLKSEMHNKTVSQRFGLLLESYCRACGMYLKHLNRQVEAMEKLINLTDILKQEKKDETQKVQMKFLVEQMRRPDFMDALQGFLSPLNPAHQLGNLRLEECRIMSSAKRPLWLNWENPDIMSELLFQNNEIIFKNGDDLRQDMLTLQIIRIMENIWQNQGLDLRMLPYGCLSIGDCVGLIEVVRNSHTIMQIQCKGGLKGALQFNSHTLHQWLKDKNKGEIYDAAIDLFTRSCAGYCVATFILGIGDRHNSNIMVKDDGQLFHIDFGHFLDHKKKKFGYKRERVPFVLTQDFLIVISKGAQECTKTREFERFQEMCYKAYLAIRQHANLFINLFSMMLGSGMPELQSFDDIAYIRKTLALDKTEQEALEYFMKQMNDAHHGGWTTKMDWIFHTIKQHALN
T1 sequence (P27986 whole entry partner, canonical isoform): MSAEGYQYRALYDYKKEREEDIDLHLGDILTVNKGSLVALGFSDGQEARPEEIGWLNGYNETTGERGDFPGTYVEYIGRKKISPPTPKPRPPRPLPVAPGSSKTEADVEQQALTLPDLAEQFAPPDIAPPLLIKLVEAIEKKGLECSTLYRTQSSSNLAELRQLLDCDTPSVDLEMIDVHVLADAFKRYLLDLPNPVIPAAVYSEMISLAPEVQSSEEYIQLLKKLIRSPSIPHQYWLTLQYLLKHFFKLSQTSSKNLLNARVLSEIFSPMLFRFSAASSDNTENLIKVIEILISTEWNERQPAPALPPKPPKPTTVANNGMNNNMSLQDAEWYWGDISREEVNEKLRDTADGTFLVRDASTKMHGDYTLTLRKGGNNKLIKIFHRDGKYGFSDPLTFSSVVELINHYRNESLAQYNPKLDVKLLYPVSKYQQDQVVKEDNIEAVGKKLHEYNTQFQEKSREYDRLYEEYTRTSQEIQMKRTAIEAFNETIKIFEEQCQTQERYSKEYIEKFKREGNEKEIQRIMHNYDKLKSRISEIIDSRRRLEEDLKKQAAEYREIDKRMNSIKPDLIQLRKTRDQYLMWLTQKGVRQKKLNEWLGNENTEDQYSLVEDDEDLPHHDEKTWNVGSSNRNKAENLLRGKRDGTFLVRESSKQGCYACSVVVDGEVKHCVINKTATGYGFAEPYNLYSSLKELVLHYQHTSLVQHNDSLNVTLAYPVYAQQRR

IC50 [1] [µM]	IC50 [2] [µM]	SMILES
~5	~40	CC(=O)Nc1cc(-c2cncc(NS(C)(=O)=O)c2)n(C)n1 [Example 1, N-[5-(5-methanesulphonamidopyridin-3-yl)-1-methyl-1H-pyrazol-3-yl]acetamide]
~0.5	~2	CC(=O)Nc1cc(-c2cncc(NS(=O)(=O)c3c(C)nn(C)c3Cl)c2)n(C)n1 [Example 3, N-{5-[5-(5-chloro-1,3-dimethyl-1H-pyrazol-4-ylsulphonamido)pyridin-3-yl]-1-methyl-1H-pyrazol-3-yl}acetamide]
